Reference: US20240132463A1, “SUBSTITUTED N-(2-(2,6-DIOXOPIPERIDIN-3-YL)-1,3-DIOXOISOINDOLIN-5-YL)ARYLSULFONAMIDE ANALOGS AS MODULATORS OF CEREBLON PROTEIN” (ST. JUDE CHILDREN'S RESEARCH HOSPITAL, INC., priority 2020, published 2024)

Legend:
IKZF1 = IKZF1 (Homo sapiens (Human), UniProt Q13422+Q96SW2); experiment: IKZF1 degradation by immunoblot in MV4-11 cells; assay type: cell-based; settings: MV4-11 cells
Method: (§1) MV4-11 cells were seeded in 6-well plates (1×10^6 cells per well). After overnight incubation, the cells were treated with indicated concentrations for specific timepoints. […] After blocking the membrane with LI-COR TBS blocking buffer and incubation in primary antibody overnight, the corresponding protein signals were detected using IRDye secondary antibodies and Odyssey Imaging System. Image Studio Lite Ver 5.2 was used for blot quantification. […] IRDye® 800CW Goat anti-Mouse IgG Secondary Antibody and IRDye® 68ORD Goat anti-Rabbit IgG Secondary Antibody were used as secondary antibodies.

GSPT1 = GSPT1 (Homo sapiens (Human), UniProt P15170+Q96SW2); experiment: GSPT1 degradation by immunoblot in MV4-11 cells; assay type: cell-based; settings: MV4-11 cells, 4 hours, at 100 nM
Method: as §1

MV4-11 cells = experiment: MV-4-11 cell viability assay; assay type: cell-based, human; settings: 72 hours, Cell Titer Glo
Method: MV-4-11 cell line was purchased from the American Type Culture Collection (ATCC, Manassas, VA). The cells were cultured according to recommendations in IMDM cell culture media (ATCC). Exponentially growing MV-4-11 cells were plated at 1,000 cells per well in Corning 8804BC white 384-well assay plates and incubated overnight at 37° C. in a humidified 5% CO2 incubator. Compounds were transferred to the assay plate from a dose-response plate using a Pintool on a Biomek FXP Laboratory Automation Workstation (Beckman Coulter). Cytotoxicity was determined following 72 hours of incubation using Promega Cell Titer Glo reagent according to the manufacturer's recommendation. Luminescence was measured on an Envision plate reader (Perkin-Elmer).
Compounds were screened in human cancer cell lines and each cell line was cultured in the complete medium recommended by the vendor and seeded in Corning 8804BC white 384-well assay plates at density of 1,000, 1,000, 1,000, 1,500 and 7,500 cells per well, for MV4-11, HD-MB03, MB004, MB002 and MHH-CALL4 cells respectively. After overnight incubation at 37° C. in a humidified 5% CO2 incubator, cells were treated with compounds in dose-response format using a Pintool on a Biomek FXP Laboratory Automation Workstation (Beckman Coulter). […] After 72 h incubation, cell proliferation was assessed using Cell Titer-Glo (CTG) luminescent cell viability assay (Promega) according to the manufacturer's instruction. Luminescence signal was measured using an Envision plate reader (Perkin-Elmer).

caspase 3/7 = experiment: Caspase 3/7 activity assay; assay type: cell-based, human; settings: MV4-11 cells, Caspase-Glo, 4, 8 and 24 hours, 10 and 100 nM
[1] = Pharmacokinetics (PK) study in CD1 mice; assay type: in vivo, mouse
Method: Healthy female CD1 mice (8-12 weeks old) weighing between 20 to 30 g were procured from Global, India. Three mice were housed in each cage. Temperature and humidity were maintained at 22±3° C. and 30-70%, respectively and illumination was controlled to give a sequence of 12 hr light and 12 hr dark cycle. Temperature and humidity were recorded by auto-controlled data logger system. All the animals were provided laboratory rodent diet (Envigo Research private Ltd, Hyderabad). Reverse osmosis water treated with ultraviolet light was provided ad libitum. Formulation vehicle: 5% v/v NMP: 5% v/v Solute HS-15 and 90% v/v normal saline. […] The dosing volume for intravenous was 5 mL/kg and for oral administration 10 mL/kg. Blood samples (approximately 60 μL) were collected under light isoflurane anesthesia (Surgivet®) from retro orbital plexus from a set of three mice at 0.08 (for IV only), 0.25, 0.5, 1, 2, 4, 6 (for PO only), 8, 12 and 24 hr. Immediately after blood collection, plasma was harvested by centrifugation at 4000 rpm, 10 min at […] and samples were stored at −70±10° C. until bioanalysis. […] Non-Compartmental-Analysis tool of Phoenix WinNonlin® (Version 8.0) was used to assess the pharmacokinetic parameters. Peak plasma concentration (Cmax) and time for the peak plasma concentration (Tmax) were the observed values. The areas under the concentration time curve (AUClast and AUCinf) were calculated by linear trapezoidal rule. The terminal elimination rate constant, ke was determined by regression analysis of the linear terminal portion of the log plasma concentration-time curve. Clearance was estimated as Dose/AUCinf and Vss as CL*MRT. The oral bioavailability was calculated as ratio of dose normalized AUC of oral and intravenous group multiplied by 100.

[2] = Liver microsomes stability assay (human); assay type: in vitro ADME
Method: The liver microsome stability assay was carried as previously described (Refs. 40-41). NADPH regenerating agent solutions A and B and mouse liver microsomes (CD-1) were obtained from BD Gentest (Woburn, MA). Pooled human liver microsomes were purchased from XenoTech (Lenexa, KS). Ninety-six deep well plates were obtained from Midsci (St. Louis, MO). Ninety-six analytical plates were obtained from Corning Incorporated (Acton, MA). Sample preparation for microsomal stability was modified from Di's publications. A set of incubation times of 0, 15, 30, 60, 120, and 240 min were used. DMSO stock solutions of test compounds and verapamil (system control) were prepared at 10 mM concentration. Concentrated human or mouse liver microsomes (20 mg/mL protein concentration) and 0.5 M EDTA were diluted into 0.1 M potassium phosphate buffer (pH 7.4) and mixed well, followed by compounds solutions being spiked. This solution was mixed and 90 μL was transferred to 6 time points plates (each in triplicate wells). For the time 0 h plate, 3 fold (v:v) cold acetonitrile with internal standard (40 ng/ml warfarin) was added to each well, followed by addition of NADPH regenerating agent (mixing NADPH solutions A and B in PBS, pH7.4) and no incubation. […] The metabolic stability was evaluated via the half-life from least-squares fit of the multiple time points based on first-order kinetics.

Chain of GSPT1 (P15170 whole entry): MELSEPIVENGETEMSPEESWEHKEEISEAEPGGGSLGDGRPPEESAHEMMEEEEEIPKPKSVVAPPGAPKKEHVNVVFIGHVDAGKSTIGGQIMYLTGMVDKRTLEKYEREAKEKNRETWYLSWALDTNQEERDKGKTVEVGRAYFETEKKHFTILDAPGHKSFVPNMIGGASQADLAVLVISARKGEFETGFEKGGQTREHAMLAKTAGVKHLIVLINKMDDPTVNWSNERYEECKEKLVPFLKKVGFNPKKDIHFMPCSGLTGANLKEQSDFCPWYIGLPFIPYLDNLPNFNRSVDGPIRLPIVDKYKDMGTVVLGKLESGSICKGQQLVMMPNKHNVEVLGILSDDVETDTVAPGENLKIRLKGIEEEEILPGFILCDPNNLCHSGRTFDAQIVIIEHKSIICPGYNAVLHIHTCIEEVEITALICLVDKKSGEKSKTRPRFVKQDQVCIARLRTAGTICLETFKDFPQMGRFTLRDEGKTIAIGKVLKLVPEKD
Chain of GSPT1 (Q96SW2 whole entry): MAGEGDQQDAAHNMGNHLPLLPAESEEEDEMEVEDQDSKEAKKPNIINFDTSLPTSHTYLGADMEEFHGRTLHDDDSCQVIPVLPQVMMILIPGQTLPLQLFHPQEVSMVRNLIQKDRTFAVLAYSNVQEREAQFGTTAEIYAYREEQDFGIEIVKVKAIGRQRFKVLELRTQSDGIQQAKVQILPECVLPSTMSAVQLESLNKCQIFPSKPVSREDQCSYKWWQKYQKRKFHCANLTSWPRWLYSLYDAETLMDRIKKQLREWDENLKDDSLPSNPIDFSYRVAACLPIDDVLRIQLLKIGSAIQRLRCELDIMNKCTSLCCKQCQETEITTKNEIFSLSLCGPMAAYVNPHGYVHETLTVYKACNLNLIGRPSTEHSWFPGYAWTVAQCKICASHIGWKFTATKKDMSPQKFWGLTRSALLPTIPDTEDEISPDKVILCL
Chain of GSPT1 (Q16531 whole entry partner): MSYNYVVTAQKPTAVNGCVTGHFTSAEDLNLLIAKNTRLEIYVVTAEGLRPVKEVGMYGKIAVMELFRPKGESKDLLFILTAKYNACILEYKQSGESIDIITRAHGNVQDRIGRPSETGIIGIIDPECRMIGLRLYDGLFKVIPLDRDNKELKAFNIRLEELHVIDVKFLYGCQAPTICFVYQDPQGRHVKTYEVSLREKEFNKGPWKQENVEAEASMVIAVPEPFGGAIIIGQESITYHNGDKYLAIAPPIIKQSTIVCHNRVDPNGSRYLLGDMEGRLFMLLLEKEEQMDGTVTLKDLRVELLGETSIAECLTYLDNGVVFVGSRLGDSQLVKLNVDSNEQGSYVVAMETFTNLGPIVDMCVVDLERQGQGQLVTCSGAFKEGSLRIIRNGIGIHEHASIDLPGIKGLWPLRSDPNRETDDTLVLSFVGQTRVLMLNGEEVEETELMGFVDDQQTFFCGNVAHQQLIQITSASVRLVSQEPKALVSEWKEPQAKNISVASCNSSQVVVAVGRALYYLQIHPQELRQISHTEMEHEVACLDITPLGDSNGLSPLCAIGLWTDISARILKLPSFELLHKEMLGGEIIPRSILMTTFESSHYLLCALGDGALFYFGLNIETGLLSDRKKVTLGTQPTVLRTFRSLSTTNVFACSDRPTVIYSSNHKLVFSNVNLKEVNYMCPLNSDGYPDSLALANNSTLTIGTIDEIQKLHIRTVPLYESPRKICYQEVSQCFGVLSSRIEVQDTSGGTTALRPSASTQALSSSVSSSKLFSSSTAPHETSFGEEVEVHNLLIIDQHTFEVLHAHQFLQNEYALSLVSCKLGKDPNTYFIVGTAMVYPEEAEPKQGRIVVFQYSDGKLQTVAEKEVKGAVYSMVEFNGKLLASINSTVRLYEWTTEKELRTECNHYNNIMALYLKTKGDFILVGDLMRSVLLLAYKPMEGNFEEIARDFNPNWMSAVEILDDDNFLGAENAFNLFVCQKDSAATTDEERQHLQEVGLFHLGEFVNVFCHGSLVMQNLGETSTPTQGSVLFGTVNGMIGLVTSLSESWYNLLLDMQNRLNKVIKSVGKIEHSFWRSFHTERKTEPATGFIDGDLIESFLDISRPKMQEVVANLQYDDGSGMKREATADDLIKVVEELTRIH

## O=C1CCC(N2C(=O)c3ccc(NS(=O)(=O)c4ccccc4OC(F)(F)F)cc3C2=O)C(=O)N1 (centres unmarked) [Compound 1, N-(2-(2,6-dioxopiperidin-3-yl)-1,3-dioxoisoindolin-5-yl)-2-(trifluoromethoxy)benzenesulfonamide]
IKZF1; 4 hours, any concentration tested
  IKZF1 degradation at 4 hours: did not significantly degrade IKZF1
IKZF1; treatment over 24 hours
  IKZF1 protein abundance: dose-dependent decrease
GSPT1
  GSPT1 protein degradation: 90%
MV4-11 cells
  MV4-11 EC50: among the most potent
Caspase 3/7
  caspase activation: measurable at 8 hours
[1]; 3 mg/kg IV
  clearance: 0.46 mL/min/kg
  volume of distribution: 0.15 L/kg
[1]; 10 mg/kg PO vs 3 mg/kg IV
  oral bioavailability: 84%
[1]; female, CD1, mouse, plasma, 3 mg/kg IV, read-out: terminal elimination half-life (t1/2) (converted)
  half-life: 3.4 h
[2]
  intrinsic clearance Clint: 4 mL/min/kg
  liver microsomes t1/2: 5.7 h
